Laboratory results taken from article PMC3988029, “A Trisubstituted Benzimidazole Cell Division Inhibitor with Efficacy against Mycobacterium tuberculosis” (PLoS ONE, 2014).
Values after ≈ are worked out from the molar mass of the structure shown.

Experiments:
[1] = tested on: M. tuberculosis clinical isolates; assay: microbe, parasite or virus in culture; format: cell-based; conditions: Mycobacterium tuberculosis, read-out: MIC against different clinical strains of M. tuberculosis
M. tuberculosis H37Rv = format: cell-based, Mycobacterium tuberculosis; conditions: 2×10^9 cells plated on 1.6 µg/mL, 10 times MIC
M. tuberculosis = format: cell-based; conditions: for Enhancement of activity against M. tuberculosis in the presence of the partner drug: checkerboard, SB-P17G-A20 with rifampicin

Row | Structure (SMILES) | MIC [1] | Spontaneous resistant mutants (M. tuberculosis H37Rv) | Enhancement of activity against M. tuberculosis in the presence of the partner drug (M. tuberculosis) | ΣFIC (M. tuberculosis; rifampicin in combination with SB-P17G-A20)
1 | CN(C)c1cc2[nH]c(C3CCCCC3)nc2cc1NC(=O)c1ccc(OC(F)(F)F)cc1 [SB-P17G-A20] | 0.16 µg/mL (≈ 0.358 µM) | no single resistant colony was obtained | 2–4 fold | 0.75
2 | CO[C@H]1/C=C/O[C@@]2(C)Oc3c(C)c(O)c4c(O)c(c(/C=N/N5CCN(C)CC5)c(O)c4c3C2=O)NC(=O)/C(C)=C\C=C\[C@H](C)[C@H](O)[C@@H](C)[C@@H](O)[C@@H](C)[C@H](OC(C)=O)[C@@H]1C [rifampicin, reference compound] | – | – | 2 fold | –
